In ChEMBL document CHEMBL1201862, “PubChem BioAssay data set” (2004):
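Grown in 96-well plates, cells were treated for 48 hours with each compound at five concentrations. Insufficient inhibition: endpoint recorded as highest concentration tested. Abbreviation: GI50, concentration required for 50% inhibition of growth.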 Active and inactive are the calls of the source. Rule as the data show it: active = GI50 up to about 1.1 µM and inactive = higher.

Legend:
Assay in all cases: NCI anticancer screen, dose series, 48 h
UO-31 = test system: UO-31
HCT-15 = test system: HCT-15
SK-MEL-5 = test system: SK-MEL-5
SNB-75 = test system: SNB-75
UACC-257 = test system: UACC-257
M14 = test system: M14
HT-29 = test system: HT-29
SN12C = test system: SN12C
SF-539 = test system: SF-539
786-0 = test system: 786-0
SF-295 = test system: SF-295
A549 = test system: A549
NCI/ADR-RES = test system: NCI/ADR-RES
OVCAR-3 = test system: OVCAR-3
DU-145 = test system: DU-145
SK-MEL-28 = test system: SK-MEL-28
MDA-MB-435 = test system: MDA-MB-435
UACC-62 = test system: UACC-62
SK-OV-3 = test system: SK-OV-3

Measured: GI50

Cc1cc(=O)oc2c(CN(CCCl)CCCl)c(O)ccc12
inactive: UO-31 41.8 µM | SK-MEL-5 16.6 µM | SNB-75 53.5 µM | UACC-257 > 100 µM | M14 39.8 µM | HT-29 22.7 µM | SN12C 20.7 µM | SF-539 20.6 µM | 786-0 33.4 µM | SF-295 11.8 µM | A549 27.5 µM | NCI/ADR-RES 71.9 µM | OVCAR-3 80.5 µM | DU-145 36.5 µM | SK-MEL-28 65.5 µM | MDA-MB-435 57.3 µM | UACC-62 5.56 µM
56.9 µM: HCT-15

COC(=O)c1ccc(NCc2cc(O)c3ccccc3c2O)cc1
inactive: UO-31 13.1 µM | SK-MEL-5 1.51 µM | SNB-75 22.5 µM | UACC-257 7.87 µM | HT-29 18.7 µM | SN12C 7.13 µM | SF-539 15.3 µM | 786-0 16.1 µM | SF-295 7.5 µM | A549 10.8 µM | NCI/ADR-RES 27.1 µM | SK-OV-3 16.8 µM | OVCAR-3 14.9 µM | DU-145 15.8 µM | SK-MEL-28 5.65 µM | MDA-MB-435 2.11 µM | UACC-62 3.67 µM
8.49 µM: HCT-15

CCOC(=O)Cn1sc2ncc([N+](=O)[O-])cc2c1=O
inactive: UO-31 10.1 µM | SK-MEL-5 27.5 µM | SNB-75 39.5 µM | UACC-257 17.1 µM | HT-29 16.2 µM | SN12C 16.6 µM | SF-539 19.5 µM | 786-0 16.9 µM | SF-295 18.9 µM | A549 19.3 µM | NCI/ADR-RES 13.9 µM | SK-OV-3 18.3 µM | OVCAR-3 16.8 µM | DU-145 > 100 µM | SK-MEL-28 15.1 µM | MDA-MB-435 16.2 µM | UACC-62 23 µM
16.4 µM: HCT-15

COc1ccc(Nc2nc(N)c(C(=O)c3ccccc3)s2)cc1
active: UO-31 0.0912 µM | SK-MEL-5 0.0689 µM | SNB-75 0.0258 µM | HT-29 0.0162 µM | SN12C 0.0811 µM | SF-539 0.0129 µM | 786-0 0.0494 µM | SF-295 0.0164 µM | A549 0.152 µM | NCI/ADR-RES < 0.01 µM | SK-OV-3 0.0865 µM | OVCAR-3 0.0607 µM | DU-145 0.178 µM | MDA-MB-435 < 0.01 µM | UACC-62 0.05 µM
inactive: UACC-257 29.5 µM | SK-MEL-28 44.4 µM
0.0471 µM: HCT-15

COc1cccc(NC(=O)CC(=O)NN)c1
> 100 µM: HCT-15
inactive: UO-31 > 100 µM | SK-MEL-5 > 100 µM | SNB-75 > 100 µM | UACC-257 > 100 µM | HT-29 > 100 µM | SN12C > 100 µM | SF-539 > 100 µM | 786-0 > 100 µM | SF-295 > 100 µM | A549 > 100 µM | NCI/ADR-RES > 100 µM | SK-OV-3 > 100 µM | OVCAR-3 > 100 µM | DU-145 > 100 µM | SK-MEL-28 > 100 µM | MDA-MB-435 > 100 µM | UACC-62 > 100 µM

Cc1[nH]c(-c2ccccc2)c2nc(N(C)C)oc(=O)c12
> 100 µM: HCT-15
inactive: UO-31 > 100 µM | SK-MEL-5 > 100 µM | SNB-75 > 100 µM | UACC-257 > 100 µM | M14 > 100 µM | HT-29 > 100 µM | SN12C > 100 µM | SF-539 > 100 µM | 786-0 > 100 µM | SF-295 > 100 µM | A549 > 100 µM | NCI/ADR-RES > 100 µM | SK-OV-3 > 100 µM | DU-145 > 100 µM | SK-MEL-28 > 100 µM | MDA-MB-435 > 100 µM | UACC-62 > 100 µM
